Tests used:
[1] = Displacement of [3H]-Flumazenil from GABAA/BZD receptor in rat cortical membranes; type: cell membranes
[2] = Displacement of [3H]-Flumazenil from GABAA/BZD receptor in rat cortical membranes incubated for 40 mins by radioligand binding assay; type: cell membranes
[3] = molecular target: T1, GABA-A receptor; alpha-1/beta-2/gamma-2 (Homo sapiens) (UniProt P14867+P47870+P18507); experiment: Positive allosteric modulation of recombinant human GABAA alpha1beta2gamma2s receptor expressed in Xenopus laevis oocytes assessed as GABA-stimulated current amplitude at 300 uM measured for 2 min by electrophysiological method relative to control; type: cell-based
[4] = test system: Xenopus laevis; experiment: Anaesthetic activity in Xenopus laevis tadpoles assessed as dose causing loss of righting reflex measured every 10 mins up to 120 mins; type: functional, organism-based
[5] = molecular target: T1, GABA-A receptor; alpha-1/beta-2/gamma-2 (Homo sapiens); experiment: Positive allosteric modulation of human GABA-A alpha1beta2gamma2S receptor expressed in Xenopus laevis oocytes assessed as increase in GABA-induced chloride channel current at 100 uM by two-electrode voltage clamp method relative to control; type: cell-based
[6] = molecular target: T2, GABA-A receptor; alpha-1/beta-2/gamma-2 (Homo sapiens, UniProt P14867+P18507+P47870); experiment: Positive allosteric modulation of human GABA-A alpha1beta2gamma2S receptor expressed in Xenopus laevis oocytes assessed as increase in GABA-induced chloride channel current by two-electrode voltage clamp method relative to control; type: cell-based
T2 sequence (P14867 whole entry): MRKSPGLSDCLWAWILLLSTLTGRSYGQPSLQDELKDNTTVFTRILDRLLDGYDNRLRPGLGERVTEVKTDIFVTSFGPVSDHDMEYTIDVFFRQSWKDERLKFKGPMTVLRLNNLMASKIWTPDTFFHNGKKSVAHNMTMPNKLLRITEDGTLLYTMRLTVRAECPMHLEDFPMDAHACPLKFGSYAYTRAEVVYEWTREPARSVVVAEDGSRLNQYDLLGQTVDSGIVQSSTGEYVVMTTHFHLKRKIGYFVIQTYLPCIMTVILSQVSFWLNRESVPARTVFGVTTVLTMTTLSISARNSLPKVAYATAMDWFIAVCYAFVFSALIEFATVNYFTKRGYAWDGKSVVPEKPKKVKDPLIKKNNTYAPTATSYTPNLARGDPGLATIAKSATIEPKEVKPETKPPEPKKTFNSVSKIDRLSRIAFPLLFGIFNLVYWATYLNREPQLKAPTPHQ
T2 sequence (P47870 whole entry): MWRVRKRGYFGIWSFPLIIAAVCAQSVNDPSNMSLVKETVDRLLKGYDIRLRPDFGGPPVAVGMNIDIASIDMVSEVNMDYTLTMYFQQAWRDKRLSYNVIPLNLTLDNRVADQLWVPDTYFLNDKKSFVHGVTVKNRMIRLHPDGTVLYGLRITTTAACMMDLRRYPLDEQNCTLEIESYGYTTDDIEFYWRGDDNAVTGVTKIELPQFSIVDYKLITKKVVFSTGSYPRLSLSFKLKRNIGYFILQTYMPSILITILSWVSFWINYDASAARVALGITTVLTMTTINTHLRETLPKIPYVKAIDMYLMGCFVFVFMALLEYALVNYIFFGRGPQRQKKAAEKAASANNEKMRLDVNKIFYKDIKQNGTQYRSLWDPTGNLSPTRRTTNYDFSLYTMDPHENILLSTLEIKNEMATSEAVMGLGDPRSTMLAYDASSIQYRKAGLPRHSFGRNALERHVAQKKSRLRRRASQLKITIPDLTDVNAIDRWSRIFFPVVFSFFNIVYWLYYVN
T2 sequence (P18507 whole entry): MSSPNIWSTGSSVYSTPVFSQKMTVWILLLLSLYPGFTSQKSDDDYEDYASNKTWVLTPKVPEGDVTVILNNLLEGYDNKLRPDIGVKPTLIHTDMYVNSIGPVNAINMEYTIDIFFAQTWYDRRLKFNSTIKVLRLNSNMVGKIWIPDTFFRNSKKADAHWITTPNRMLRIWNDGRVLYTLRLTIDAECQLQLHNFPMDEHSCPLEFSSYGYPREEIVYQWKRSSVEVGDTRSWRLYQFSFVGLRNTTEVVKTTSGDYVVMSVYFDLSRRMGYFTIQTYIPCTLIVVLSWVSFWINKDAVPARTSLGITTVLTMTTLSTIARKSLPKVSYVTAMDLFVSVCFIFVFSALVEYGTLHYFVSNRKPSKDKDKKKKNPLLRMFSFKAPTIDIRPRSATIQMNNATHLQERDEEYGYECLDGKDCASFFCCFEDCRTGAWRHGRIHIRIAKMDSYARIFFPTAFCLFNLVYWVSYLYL

[7] = molecular target: T1, GABA-A receptor; alpha-1/beta-2/gamma-2 (Homo sapiens); experiment: Positive allosteric modulation of human GABA-A alpha1beta2gamma2S receptor expressed in Xenopus laevis oocytes assessed as increase in GABA-induced chloride channel current by two-electrode voltage clamp method; type: cell-based
[8] = Binding affinity to recombinant human GABA-A alpha2beta3gamma2 receptor expressed in L(tk) cells; type: cell-based
[9] = molecular target: T3, GABA-A receptor; alpha-5/beta-3/gamma-2 (Homo sapiens) (UniProt P18507+P28472+P31644); experiment: Inverse agonist activity at recombinant human GABA-A alpha5beta3gamma2 receptor expressed in Xenopus laevis oocytes relative to control; type: cell-based
[10] = Oral bioavailability in rat at 3 mg/kg; type: ADME, organism-based; conditions: in vivo
[11] = species on record: Homo sapiens; experiment: Positive allosteric modulation of human GABA-A alpha4beta3delta receptor expressed in mouse L(tk-) cells assessed as GABA-induced membrane potential at 1 uM incubated for 2.5 min by FLIPR assay relative to control; type: cell-based
[12] = species on record: Homo sapiens; experiment: Positive allosteric modulation of human GABA-A alpha4beta3delta receptor expressed in mouse L(tk-) cells assessed as GABA-induced membrane potential at 10 uM incubated for 2.5 min by FLIPR assay relative to control; type: cell-based
[13] = species on record: Homo sapiens; experiment: Positive allosteric modulation of human GABAA alpha4beta3gamma2 receptor expressed in mouse L(tk-) cells assessed as GABA-induced membrane potential at 10 uM incubated for 2.5 min by FLIPR assay relative to control; type: cell-based
[14] = molecular target: GABA-A receptor; alpha-1/beta-3/gamma-2 (Homo sapiens) (UniProt P14867+P18507+P28472); experiment: Positive allosteric modulation of human GABA-Aalpha1beta3gamma2 receptor expressed in mouse L(tk-) cells assessed as GABA-induced membrane potential at 10 uM incubated for 2.5 min by FLIPR assay relative to control; type: cell-based
[15] = molecular target: GABA-A receptor; anion channel; experiment: Displacement of [35S]TBPS from Sprague-Dawley rat brain cortical membrane GABAA receptor incubated for 90 mins by scintillation counting method
[16] = molecular target: T2, GABA-A receptor; alpha-1/beta-2/gamma-2; experiment: Positive allosteric modulation of human recombinant GABA-A alpha1beta2gamma2L receptor expressed in Xenopus laevis oocytes by two-electrode voltage clamp method; type: cell-based
[17] = molecular target: T1, GABA-A receptor; alpha-1/beta-2/gamma-2 (Homo sapiens); experiment: Positive allosteric modulation of human recombinant GABA-A alpha1beta2gamma2L receptor expressed in Xenopus laevis oocytes assessed as maximal current response by two-electrode voltage clamp method relative to control; type: cell-based
[18] = Inhibition of BZD receptor (unknown origin); design: species or system Homo sapiens
[19] = Displacement of [3H]-Flumazenil from GABAA/BZD receptor in Sprague-Dawley rat cerebral cortex incubated for 40 mins by liquid scintillation counting method
[20] = Binding affinity to human GABA-A alpha4beta2delta receptor expressed in Xenopus laevis oocytes; type: cell-based
[21] = Binding affinity to human GABA-A alpha4beta3delta receptor expressed in Xenopus laevis oocytes; type: cell-based
[22] = species on record: Homo sapiens; experiment: Agonist activity at human GABA-A alpha4beta2delta receptor expressed in Xenopus laevis oocytes assessed as maximal GABA response by electrophysiology method relative to GABA; type: cell-based
[23] = species on record: Homo sapiens; experiment: Partial agonist activity at human GABA-A alpha4beta3delta receptor expressed in Xenopus laevis oocytes assessed as maximal GABA response by electrophysiology method relative to GABA; type: cell-based
[24] = molecular target: Gamma-aminobutyric acid receptor subunit alpha-4/beta-1/delta (Homo sapiens) (UniProt P48169+O14764+P18505); experiment: Partial agonist activity at human GABA-A alpha4beta1delta receptor expressed in Xenopus laevis oocytes assessed as maximal GABA response by electrophysiology method relative to GABA; type: cell-based
[25] = species on record: Homo sapiens; experiment: Selectivity ratio, ratio of EC50 for human GABA-A alpha4beta1delta receptor expressed in Xenopus laevis oocytes to EC50 for human GABA-A alpha4beta2delta receptor expressed in Xenopus laevis oocytes; type: cell-based
[26] = species on record: Homo sapiens; experiment: Selectivity ratio, ratio of EC50 for human GABA-A alpha4beta1delta receptor expressed in Xenopus laevis oocytes to EC50 for human GABA-A alpha4beta3delta receptor expressed in Xenopus laevis oocytes; type: cell-based
[27] = molecular target: T3, GABA-A receptor; alpha-5/beta-3/gamma-2 (Homo sapiens); experiment: Inverse agonist activity at recombinant human GABA-A alpha5beta3gamma2 receptor expressed in mouse L(tk-) cells by whole-cell patch-Clamp method; type: cell-based
[28] = molecular target: T4, GABA-A receptor; alpha-5/beta-3/gamma-2 (Homo sapiens, UniProt P18507+P28472+P31644); experiment: Inverse agonist activity at recombinant human GABA-A alpha5beta3gamma2 receptor expressed in mouse L(tk-) cells by radioligand binding assay; type: cell-based
T4 sequence (P18507 whole entry): T2 sequence (P18507 whole entry)
T4 sequence (P28472 whole entry): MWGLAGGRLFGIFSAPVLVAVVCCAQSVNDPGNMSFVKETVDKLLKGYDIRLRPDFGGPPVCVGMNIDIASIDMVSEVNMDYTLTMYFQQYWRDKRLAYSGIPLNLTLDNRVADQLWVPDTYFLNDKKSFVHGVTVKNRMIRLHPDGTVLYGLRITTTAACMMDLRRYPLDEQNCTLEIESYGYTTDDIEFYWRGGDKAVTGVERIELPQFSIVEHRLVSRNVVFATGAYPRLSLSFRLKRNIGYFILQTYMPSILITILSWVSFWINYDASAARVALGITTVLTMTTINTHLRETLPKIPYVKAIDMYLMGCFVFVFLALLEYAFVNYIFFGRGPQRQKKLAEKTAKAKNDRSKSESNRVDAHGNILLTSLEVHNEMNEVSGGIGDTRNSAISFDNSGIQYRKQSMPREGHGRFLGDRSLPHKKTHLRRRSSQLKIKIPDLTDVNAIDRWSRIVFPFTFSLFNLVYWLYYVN
T4 sequence (P31644 whole entry): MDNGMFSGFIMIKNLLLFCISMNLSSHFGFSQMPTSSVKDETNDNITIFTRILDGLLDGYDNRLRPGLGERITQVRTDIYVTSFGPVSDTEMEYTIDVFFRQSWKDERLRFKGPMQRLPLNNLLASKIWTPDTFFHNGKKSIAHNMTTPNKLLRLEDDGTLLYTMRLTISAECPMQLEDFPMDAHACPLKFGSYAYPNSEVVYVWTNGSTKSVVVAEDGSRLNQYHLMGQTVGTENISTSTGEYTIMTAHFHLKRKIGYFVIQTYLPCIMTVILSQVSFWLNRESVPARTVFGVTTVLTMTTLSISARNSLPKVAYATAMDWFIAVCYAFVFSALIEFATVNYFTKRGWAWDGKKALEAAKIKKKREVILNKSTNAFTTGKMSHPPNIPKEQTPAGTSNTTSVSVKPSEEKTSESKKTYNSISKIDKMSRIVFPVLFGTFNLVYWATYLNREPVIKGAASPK

CCOC(=O)c1cnc2ccc(C(F)(F)F)cc2c1O
Ki [1]: 0.122 µM

CCCC(=O)Nc1nsc2[nH]c3ccc(C)cc3c(=O)c12
Ki [2]: 0.0028 µM

C=C(C)[C@H]1CC[C@H](C)C[C@@H]1O
Activity [3]: 280%

CC1CCCC(C)C1O (stereo not drawn)
EC50 [4]: 13.1 µM

CC1(C)O[C@H]1COc1c2ccoc2cc2oc(=O)ccc12 [OXYPEUCEDANIN]
Activity [5]: > 20% | EC50 [6]: 25 µM | Activity [7]: 547%

c1ccc(-c2nnc3c4ccccc4c(OCc4ccccn4)nn23)cc1
Ki [8]: 0.0017 µM

CC(C)=CCOc1c2ccoc2cc2oc(=O)ccc12
Activity [5]: > 20%

CC(C)=CCOc1c2occc2cc2ccc(=O)oc12
Activity [5]: > 20%

Cc1cc(-c2nnc3c4ccccc4c(OCc4cn(C)nn4)nn23)no1
Efficacy [9]: -29%

c1ccc(-c2nnc3c4c(c(OCc5ccccn5)nn23)C2CCC4CC2)cc1
Ki [8]: 0.026 µM | bioavailability [10]: 33%

c1ccc(COc2nn3c(-c4ccccc4)nnc3c3ccccc23)cc1
Ki [8]: 0.016 µM

O=C(Nc1c(-c2cccs2)nc2ccccn12)c1ccc(Cl)cc1
Activity [11]: 126%

COc1ccc2ccc(=O)oc2c1CC=C(C)C [OSTHOLE]
Activity [5]: > 20% | EC50 [6]: 14 µM | Activity [7]: 116%

CC1=CCC(C(C)(C)O)CC1 (stereo not drawn)
Activity [3]: 91.2%

CC1(C)O[C@@H]1COc1c2occc2cc2ccc(=O)oc12
Activity [5]: > 20%

CC(C)[C@H]1CC[C@@H](C)C[C@@H]1O
Activity [3]: 226%

CC(C)C1CCCC(C(C)C)C1O (stereo not drawn)
EC50 [4]: 14 µM

O=C(Nc1c(-c2cccs2)nc2c(Br)cc(Br)cn12)c1ccc(Cl)cc1
Activity [12]: 975% | Activity [13]: 306% | Activity [14]: 407%

COc1c2ccoc2c(OCC=C(C)C)c2oc(=O)ccc12
Activity [5]: > 20%

CCNC1=Nc2ccc(Cl)cc2C(C)(c2ccccc2)O1 (stereo not drawn) [ETIFOXINE]
IC50 [15]: 6.7 µM

CCCc1cc2c(=O)c(-c3ccc4c(c3)OCO4)c(CC)oc2cc1OC(=O)CC
EC50 [16]: 9.3 µM | Emax [17]: 1080%

OC1CCCCC1
Activity [3]: 30.1%

O=c1c2c[nH]c3c(c-2nn1-c1ccc(Cl)cc1)CCCC3
IC50 [18]: 0.001 µM

O=C1C[C@@H](c2ccc(O)cc2)Oc2cc(O)c(-c3c(O)cc(O)c4c(=O)cc(-c5ccc(O)cc5)oc34)c(O)c21
Ki [19]: 0.045 µM

COc1ccccc1-c1oc2ccc(C)cc2c(=O)c1O
EC50 [20]: 1.4 µM | EC50 [21]: 2.5 µM | Imax [22]: 105% | Imax [23]: 105% | Imax [24]: 61% | Ratio EC50 [25]: 10 | Ratio EC50 [26]: 10

Cc1cc(-c2nncc3c(C(C)(C)C)c(OCc4ncnn4C)nn23)no1
Efficacy [27]: -55% | Ki [28]: 0.003 µM

CCCCCc1nsc2[nH]c3ccc(C)cc3c(=O)c12
Ki [2]: 0.013 µM

O=C1C[C@@H](c2ccc(O)cc2)Oc2c1c(O)cc(O)c2-c1c(O)cc(O)c2c(=O)cc(-c3ccc(O)cc3)oc12
Ki [19]: 0.28 µM
